Experimental data published in paper PMC3706270 (Immunogenetics, 2011).

Tested on: Mamu-A1*007:01
Assay type: binding, Macaca mulatta
Conditions: Table 4; for Relative binding (WT): binding relative to the WT epitope

Sequence | Relative binding (WT) | Fold decrease (fold decrease of binding affinity versus WT epitope)
NYIYDRHGDTL [Peptide 3408.0007] | <0.000003 | >350000
SQGIRQILFL [Peptide 3408.0014] | 0.0035 | 
YHSNVKEL | 1.0 | 
